Data taken from publication PMC5008373, “Pantoprazole, an FDA-approved proton-pump inhibitor, suppresses colorectal cancer growth by targeting T-cell-originated protein kinase” (Oncotarget, 2016).

How the values were obtained:
Format in all cases: binding
[1] = molecular target: T1, T-cell-originated protein kinase (TOPK) (Homo sapiens, UniProt Q96KB5); experiment: biochemical
T1 construct: gene PBK
T1 sequence (Q96KB5 1-322): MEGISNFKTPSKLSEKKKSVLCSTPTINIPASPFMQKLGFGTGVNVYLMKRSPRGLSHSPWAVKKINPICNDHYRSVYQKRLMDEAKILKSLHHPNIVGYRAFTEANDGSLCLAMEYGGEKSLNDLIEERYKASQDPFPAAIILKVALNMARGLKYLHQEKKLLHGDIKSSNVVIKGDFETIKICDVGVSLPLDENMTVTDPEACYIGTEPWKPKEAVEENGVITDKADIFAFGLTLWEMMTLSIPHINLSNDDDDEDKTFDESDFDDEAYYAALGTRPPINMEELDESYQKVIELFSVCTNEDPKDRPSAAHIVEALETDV

[2] = molecular target: T1, T-cell-originated protein kinase (TOPK); experiment: microscale thermophoresis with labeled recombinant TOPK; also in vitro kinase assay (histone H3 phosphorylation); conditions: read-out: Dissociation constant with TOPK / Kd^b
[3] = molecular target: T1, T-cell-originated protein kinase (TOPK); experiment: microscale thermophoresis with labeled recombinant TOPK (reference inhibitor); conditions: read-out: Dissociation constant with TOPK / Kd^b
[4] = read-out: Dissociation constant with TOPK / Kd^b

Compound: NC(CO)C(=O)NNCc1ccc(O)c(O)c1O (centres unmarked) [Benserazide]
- Kd [1, 4]: 477 ± 19.9 µM

Compound: CC(=O)Nc1ccc(OCC(O)CNC(C)C)cc1 (centres unmarked) [Practolol]
- Kd [1, 4]: 226 ± 29.5 µM

Compound: COc1ccnc(C[S+]([O-])c2nc3ccc(OC(F)F)cc3[nH]2)c1OC (centres unmarked) [Pantoprazole]
- Kd [2]: 24.2 ± 2.3 µM

Compound: N#Cc1c2nc3ccccc3nc2n2ccc(NC(=O)c3cccs3)cc12 [HI-TOPK-032]
- Kd [3]: 327 ± 62.7 µM

Compound: O=C(O)c1cc(/N=N/c2ccc(S(=O)(=O)Nc3ccccn3)cc2)ccc1O [Sulfasalazine]
- Kd [1]: 339 ± 7.7 µM
